Consider two compounds from patent US11965810B2, “Multiplexed on-chip impedance cytometry system and method” (UNIVERSITY OF VIRGINIA PATENT FOUNDATION, priority 2018, dated 2024).

Assay [1] deals with cells (cell cycle phase). In words: Cell cycle phase analysis by flow cytometry after CPT treatment. The following applies: FIG. 16. Format: cell-based. From the text: Quantifying the proportion of cells in each phase of a cell cycle, including mitotic phases is widely carried out by flow cytometry using a stoichiometric fluorescent stain for DNA that reports the cells' position within the G1, S and G2 phases of the cell cycle. However, these stains are not compatible with live cell analysis.
(§1) FIGS. 16A, 16D, 16G, and 16J, corresponding to subpanel (a), (d), (g), and (j) are from flow cytometry, while the analogous impedance cytometry plots are in FIGS. 16B, 16C, 16E, 16F, 16H, 16I, 16K, and 16L (corresponding to subpanel (b) and (c), (e) and (f), (h) and (i), and (k) and (l)), respectively.
(§2) As per FIG. 16, indeed, CPT treatment at 5 nM and 10 nM levels increases the proportion of the sum of S and G2 phase cells, which can be detected based on the proportion of cells in the high impedance phase contrast (ϕZ contrast) region.
(In general: A flow cytometer gives signals particle by particle.)

Assay [2] deals with cells (cell cycle phase). In words: Cell cycle phase assessment by impedance cytometry (ϕZ contrast) after CPT treatment. Format: cell-based. The following applies: FIG. 16.
Source text: FIG. 16 illustrates that the exemplary impedance contrast method and system can be used to detect lineage of cells based on differences of phases of cell cycle in accordance with an illustrative embodiment. That is, differences in electrophysiology between cells in G1 phase versus those with S and G2 phase can be detected using the phase contrast metric that is sensitive to interior conductivity, which can be an indicator of nucleus size (i.e., cell cycle phase/stage).
In FIG. 16, it can be observed that increasing the proportion of cells in the G2 phase increases the proportion of cells in the high impedance phase contrast (ϕZ contrast) region between 5 nM and 10 nM CPT treatment, whereas lowering the proportion of cells in G2 phase by […] CPT treatment lowers the proportion of cells in the high impedance phase contrast (ϕZ contrast) region.
as §1, §2

Assay [3] deals with PDXs of 608. The assay is described as follows: Impedance phase contrast assessment of drug sensitivity, Gemcitabine-treated PDXs of 608. Conditions: standard 2D cell culture plate, right from Day 1, more clearly Day 2-5, FIG. 15A. Format: cell-based, human. From the text: (§3) In this context, since alterations in subcellular electrophysiology in response to drug-induced apoptosis or autophagy occur earlier in the cell cycle than apparent with staining-based or imaging approaches, the exemplary method and system in using electrophysiology for kinetic monitoring may be used to track differences in stochastic cell sensitivity to various drugs. Additionally, the exemplary electrophysiology method and system require no sample preparation steps for staining or image contrast enhancement, thereby preserving the state of fragile apoptotic cells. […] As a non-limiting example, sensitivity of the electrophysiology of patient-derived pancreatic tumor xenografts (PDXs) to the chemotherapy drug gemcitabine may be used to illustrate the assay. Currently, treatment with folfirinox drug combination is the preferred first-line therapy for pancreatic cancer, but a significant fraction of patients cannot tolerate the overall drug cytotoxicity. […] On the other hand, for Control (untreated) versus Gemcitabine-treated PDXs of mPanc (FIG. 15B), the alterations are only modest over all five days. Indeed, the drug sensitivity determination based on tumor size takes 5 days.

Assay [4] has as its system PDXs of mPanc. Conditions: PDX mPanc; cited from earlier work.
For assay [5], the system named is PDXs of 608. The following applies: PDX 608; cited from earlier work.
The test system of assay [6] is PDXs of mPanc. The assay is described as follows: Impedance phase contrast assessment of drug sensitivity, Gemcitabine-treated PDXs of mPanc. Format: cell-based, human. Conditions: standard 2D cell culture plate, over all five days, FIG. 15B.
Source text: as §3

“Also recorded” adds a separate entry of the source.

Regarding `CC[C@@]1(O)C(=O)OCc2c1cc1n(c2=O)Cc2cc3ccccc3nc2-1` [CPT], the “proportion of the sum of S and G2 phase cells” value with cells (cell cycle phase) [1] (CPT treatment at 5 nM) and in the assay on cells (cell cycle phase) [1] (CPT treatment at 10 nM) was “increases” in each case. Also, in the assay with cells (cell cycle phase) [1] (CPT treatment at 100 nM), the “proportion of cells in S phase” value is “increasing”. The “proportion of cells in the G2 phase” value in the assay with cells (cell cycle phase) [1] (CPT treatment at 100 nM) is “lowering; also recorded: lowers”. Besides, the “proportion of cells in the high impedance phase contrast (ϕZ contrast) region” value in the assay with cells (cell cycle phase) [2] (CPT treatment at 100 nM) is recorded as “lowers; also recorded: substantive decrease”; in the assay on cells (cell cycle phase) [2] (between 5 nM and 10 nM CPT treatment), “increases”.
On to `Nc1ccn([C@@H]2O[C@H](CO)[C@@H](O)C2(F)F)c(=O)n1` [Gemcitabine, gemcitabine], for which the “impedance phase contrast, Control (untreated) versus Gemcitabine-treated” value is listed as “statistically significant differences” in the assay on PDXs of 608 [3] and “only modest” with PDXs of mPanc [6]. In addition, the “known sensitivity to gemcitabine” value is recorded as “relatively more resistant” in the assay with PDXs of mPanc [4] and “sensitive” in the assay on PDXs of 608 [5].
